Laboratory results taken from patent US20030187075A1, “Sponge antitumor compounds” (priority 2000, published 2003).
Converted amounts (≈) assume the structure as drawn.

Tests used:
Type in all cases: cell-based
P388 Leukaemia = assay: Antitumoral activity, cytotoxicity against P388; conditions: Mus musculus; P388 Leukaemia cells
A549 (Human Lung) = assay: Antitumoral activity, cytotoxicity against A549; conditions: A549 (Human Lung) cells
HT29 (Human Colon) = assay: Antitumoral activity, cytotoxicity against HT29; conditions: HT-29; HT29 (Human Colon) cells
MEL28 (Melanoma) = assay: Antitumoral activity, cytotoxicity against MEL28; conditions: Homo sapiens, SK-MEL-28; MEL28 (Melanoma) cells

SMILES	IC50 (P388 Leukaemia) [mg/L]	IC50 (A549 (Human Lung)) [mg/L]	IC50 (HT29 (Human Colon)) [mg/L]	IC50 (MEL28 (Melanoma)) [mg/L]
CC1(C)[C@@H](Cl)CC[C@]2(C)C=C(C=CN=C(Cl)Cl)CC[C@@H]12 [Compound 4]	1 (≈ 2.99 µM)	1 (≈ 2.99 µM)	1 (≈ 2.99 µM)	1 (≈ 2.99 µM)
C=C(CC[C@@H]1C(=C)CC[C@H](Cl)C1(C)C)C(Cl)CN=C(Cl)Cl (stereo partly shown) [Compound 1]	1 (≈ 2.69 µM)	0.1 (≈ 0.269 µM)	0.1 (≈ 0.269 µM)	0.1 (≈ 0.269 µM)
CC1(C)[C@@H](Cl)[C@@H](O)C[C@]2(C)C/C(=C\C=O)CC[C@@H]12 [Compound 3]	1 (≈ 3.69 µM)	1 (≈ 3.69 µM)	1 (≈ 3.69 µM)	1 (≈ 3.69 µM)
CC1(C)[C@@H](Cl)[C@@H](O)C[C@]2(C)C/C(=C/C=O)CC[C@@H]12 [Compound 2]	1 (≈ 3.69 µM)	1 (≈ 3.69 µM)	1 (≈ 3.69 µM)	1 (≈ 3.69 µM)
